In paper PMC12595434, “Development of retinoid nuclear receptor pathway antagonists through targeting aldehyde dehydrogenase 1A3” (iScience, 2025):

Experiments:
human ALDH1A2 = target: T1, human ALDH1A2 (Homo sapiens, UniProt O94788); test: Recombinant enzyme activity assay; type: biochemical; details: dose titration, up to 10 μM
T1 construct: made in house; host or cells: BL21-DE3 E. coli
T1 sequence (O94788 1-518): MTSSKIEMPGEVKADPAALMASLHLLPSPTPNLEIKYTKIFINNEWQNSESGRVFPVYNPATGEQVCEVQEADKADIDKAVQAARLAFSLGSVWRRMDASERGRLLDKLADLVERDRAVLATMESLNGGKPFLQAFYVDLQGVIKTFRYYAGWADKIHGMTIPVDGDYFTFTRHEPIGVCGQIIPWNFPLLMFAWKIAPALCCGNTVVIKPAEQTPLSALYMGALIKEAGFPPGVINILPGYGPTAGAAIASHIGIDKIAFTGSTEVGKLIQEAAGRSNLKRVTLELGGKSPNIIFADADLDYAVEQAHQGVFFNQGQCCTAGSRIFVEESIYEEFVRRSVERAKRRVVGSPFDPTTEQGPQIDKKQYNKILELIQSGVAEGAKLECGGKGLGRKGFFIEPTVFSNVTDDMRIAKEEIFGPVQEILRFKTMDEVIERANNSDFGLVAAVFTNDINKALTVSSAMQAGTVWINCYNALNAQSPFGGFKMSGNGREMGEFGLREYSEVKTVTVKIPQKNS
Procedure: Human and mouse ALDH enzymes were cloned from respective reference RNA, constructed into plasmids using restriction enzyme cloning and confirmed by Sanger Sequencing. Genes were cloned into a vector containing the T7 promoter for bacterial expression and into a lentiviral expression vector for cell line expression as previously described.[78] Recombinant protein was isolated by inducing BL21-DE3 E. coli (Thermo Fisher) containing the respective plasmid for 20 h at room temperature, shaking, with 300 μM IPTG (Selleck Chem). Cell disruption was achieved via ultrasonication (Φ10, 3s on/6s off, 25min) in 1L of amplified bacterial culture. The target protein was then purified using Ni NTA beads 6FF affinity chromatography. Lysis buffer consisted of 50 mM Na2HPO4, 300 mM NaCl, 1 mM β-ME, pH7.5. The column (2 mL) was washed with 50 mM Na2HPO4, 300 mM NaCl, 1 mM β-ME, 20 mM Imidazole, pH7.5. Elution was performed using 3 mL of 50 mM Na2HPO4, 300 mM NaCl, 1 mM β-ME, 250 mM Imidazole, pH7.5. Following affinity chromatography, the protein underwent further purification via Gel filtration chromatography using a Superdex200 column. Aliquots were quality controlled against a pure internal standard enzyme and/or by western blot to confirm enzyme expression. Purified enzyme was used for biochemical and biophysical assays.
For the recombinant enzyme activity assay, enzyme aliquots were thawed on ice for 4 h prior to analysis and the protocol was performed as described[8] with the following key changes: 1) Final concentrations of NAD+ (Gold Bio) were 200 μM and BSA were 1 mg/mL 2) Propanaldehyde was used as the substrate for ALDH1A1 and ALDH2. 3) Reaction velocity was monitored through diaphorase (clostridium) coupled reduction of resazurin (100 μM) monitored with ex/em of 560nm/590 nm in order to regenerate NAD+ and thus maintain constant cofactor concentration as well as to avoid high absorbance values of many screening compounds at the NADH absorbance. Assays were conducted at room temperature (controlled to 21-23C) and all buffers were maintained at pH 7.5. For all reactions, pre-incubation time was approximately 2 min while the reaction monitoring was performed over 10 min.

ALDH1A3 [1] = target: T2, ALDH1A3 (Homo sapiens, UniProt P47895); test: Recombinant enzyme activity assay; type: biochemical; set-up: made in house; host or cells: BL21-DE3 E. coli; details: dose titration, up to 10 μM
T2 sequence (P47895 1-512): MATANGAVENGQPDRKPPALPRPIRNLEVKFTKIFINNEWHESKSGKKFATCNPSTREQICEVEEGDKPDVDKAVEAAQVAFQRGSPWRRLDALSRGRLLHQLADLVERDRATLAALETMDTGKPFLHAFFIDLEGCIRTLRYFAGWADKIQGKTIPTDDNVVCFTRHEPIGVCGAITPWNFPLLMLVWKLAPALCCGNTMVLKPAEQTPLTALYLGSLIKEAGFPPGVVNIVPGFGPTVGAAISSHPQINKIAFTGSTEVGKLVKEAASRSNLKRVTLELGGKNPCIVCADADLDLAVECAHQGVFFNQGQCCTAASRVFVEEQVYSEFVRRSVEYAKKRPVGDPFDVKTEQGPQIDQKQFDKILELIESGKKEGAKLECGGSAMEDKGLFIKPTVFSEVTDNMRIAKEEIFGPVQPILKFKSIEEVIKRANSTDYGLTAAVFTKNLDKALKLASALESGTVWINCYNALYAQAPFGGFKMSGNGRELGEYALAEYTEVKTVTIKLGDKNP

ALDH1A1 in HepG2 cells = target: T3, ALDH1A1 in HepG2 cells (Homo sapiens, UniProt P00352); test: Aldefluor assay in HepG2 cells; type: cell-based; details: 45 min incubation at 37°C
T3 construct: endogenous in cells; host or cells: HepG2
Procedure: In addition, cells were suspended at a concentration of 100,000 cells per mL. Finally, DMSO was added to at 1% final in all cells to improve kinetics of the assay. For compound titrations, concentrated compound stock was added first to tubes and a uniform Aldefluor buffer containing the cell suspension was added to dilute to final volumes. Cells were analyzed by a BD LSRII for flow cytometry and were sorted using a FACSAria Fusion cell sorter (BD Biosciences) equipped with a 70 micron nozzle. Sample and sort collection tubes were kept at 4°C. […] DAPI was used as a live-dead indicator.

human ALDH1A1 = target: T4, human ALDH1A1 (Homo sapiens, UniProt P00352); test: Recombinant enzyme activity assay; type: biochemical; details: dose titration, up to 10 μM
T4 construct: made in house; host or cells: BL21-DE3 E. coli
T4 sequence (P00352 1-501): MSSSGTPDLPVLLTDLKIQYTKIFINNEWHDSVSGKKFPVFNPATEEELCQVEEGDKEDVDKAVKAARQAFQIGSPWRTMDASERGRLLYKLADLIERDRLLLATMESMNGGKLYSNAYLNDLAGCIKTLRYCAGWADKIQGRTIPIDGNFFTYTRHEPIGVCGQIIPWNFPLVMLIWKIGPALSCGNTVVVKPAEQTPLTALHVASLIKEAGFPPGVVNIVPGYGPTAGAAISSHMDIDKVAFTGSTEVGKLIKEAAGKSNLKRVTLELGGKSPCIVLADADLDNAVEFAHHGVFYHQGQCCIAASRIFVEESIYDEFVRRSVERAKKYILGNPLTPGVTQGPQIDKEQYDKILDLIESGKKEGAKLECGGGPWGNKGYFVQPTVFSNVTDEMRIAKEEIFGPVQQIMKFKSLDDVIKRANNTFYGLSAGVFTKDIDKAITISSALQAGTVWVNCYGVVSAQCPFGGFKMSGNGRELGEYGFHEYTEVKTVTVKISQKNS

[2] = target: T5, human ALDH1A3 in A375 cells (Homo sapiens, UniProt P47895); test: Aldefluor assay in A375 cells; type: cell-based; details: up to 10 μM
T5 construct: the cell lines with high endogenous ALDH1A3 activity: MDA-MB-468 (triple-negative breast cancer), A375 (melanoma), and LN229 (glioblastoma); endogenous in cells; host or cells: A375
T5 sequence (P47895 1-512): T2 sequence (P47895 1-512)

ALDH1A3 cells = details: cited from earlier work
ALDH1A3 [3] = details: read-out: reported IC50 for ALDH1A3; cited from earlier work
HaCaT cells = test: Dose-titration cytotoxicity analysis; details: 24 hour incubation, highest tested dose 10 μM
MDA-MB-468 cells = details: MDA-MB-468, 24 hour incubation, highest tested dose 10 μM

inhibition at 10 µM (ALDH1A1 in HepG2 cells) [%] | activity in Aldefluor assay, A375 cells (in words) [2] | SMILES | inhibitory activity against ALDH1A2 (in words) (human ALDH1A2) | inhibitory activity against ALDH1A3 (in words) (ALDH1A3 [1]) | inhibitory activity against ALDH1A1 (in words) (human ALDH1A1) | reported cytotoxic activity against ALDH1A3 cells (in words) (ALDH1A3 cells) | IC50 (ALDH1A3 [3]) [nM] | nonspecific cytotoxicity (in words) (HaCaT cells) | nonspecific cytotoxicity (in words) (MDA-MB-468 cells) | inhibition (GABAA) [%]
13 | no dose-dependent inhibition of activity | CSC(=O)C#CC(C)(C)N(C)C [DIMATE, S-methyl 4-(dimethylamino)-4-methyl-pent-2-ynethioate] | did not show any activity | did not show any activity | did not show any activity | – | – | – | – | –
– | – | c1ccc(-c2ccc3nc(-c4ccccc4)cn3c2)cc1 [GA11] | no activity up to 10 μM | no ALDH1A3 inhibitory activity up to 10 μM | no activity up to 10 μM | picomolar | 660 | potent cytotoxicity above 100 nM | potent cytotoxicity above 100 nM | –
– | – | CCOC(=O)c1ncn2c1CN(C)C(=O)c1cc(F)ccc1-2 [flumazenil] | – | – | – | – | – | – | – | 95.9
